Measured values published in US20260077170A1, “MICRONEEDLE DRUG DELIVERY APPARATUS AND PREPARATION METHOD THEREOF” (TSINGHUA UNIVERSITY, priority 2023, published 2026).

How the values were obtained:
[1] = test system: blood glucose; assay: Hypoglycemic effect of insulin-loaded microneedle drug delivery apparatus in minipigs; type: in vivo, experimental minipigs; details: delivered into duodenum by gastroscope, real-time blood glucose over 4 hours
Description: Considering the similarities between pigs and humans in the structure of the digestive system and physiological functions, experimental minipigs were used as the animal model for functional verification of the apparatus in this example. To prevent the pigs' chewing behavior from damaging the microneedle drug delivery apparatus and to take the individual variations in gastric emptying time into account, in this example, after anesthetizing the pigs, the microneedle drug delivery apparatus prepared in Example 2 was delivered into the pigs' duodenum using a gastroscope, and this moment was defined as time zero, the beginning of monitoring of the drug concentration in serum and the drug delivery effect. Central venous blood samples were collected every 20 minutes for a continuous time period of 4 hours. Real-time blood glucose was measured using a portable blood glucose meter, and the results were illustrated in FIG. 13 and FIG. 14.

[2] = Bioavailability of insulin from serum pharmacokinetic curve (human insulin ELISA); type: in vivo, experimental minipigs; details: minipigs, (AUC/dose) relative to subcutaneous injection group, serum insulin over 4 hours
Description: Considering the similarities between pigs and humans in the structure of the digestive system and physiological functions, experimental minipigs were used as the animal model for functional verification of the apparatus in this example. To prevent the pigs' chewing behavior from damaging the microneedle drug delivery apparatus and to take the individual variations in gastric emptying time into account, in this example, after anesthetizing the pigs, the microneedle drug delivery apparatus prepared in Example 2 was delivered into the pigs' duodenum using a gastroscope, and this moment was defined as time zero, the beginning of monitoring of the drug concentration in serum and the drug delivery effect. Central venous blood samples were collected every 20 minutes for a continuous time period of 4 hours. Excess blood was placed in a coagulation tube, left to stand for approximately 40 minutes, and then centrifuged to separate the serum. […] Calculating the area under this curve (AUC) can be used to compare the bioavailability of different drug delivery methods. […] The bioavailability was calculated as the ratio of the area under the pharmacokinetic curve (AUC)/administered dose of the test group to the corresponding value of the subcutaneous injection group, for evaluating the efficiency of a drug delivery method. […]

What does the source list for human recombinant insulin?
hypoglycemic effect [1]: poor hypoglycemic effect; bioavailability [2]: 0.6%
